Values joined by “and” are separate entries in the source; they are usually repeats but may differ in a detail not shown here. Identical values can stand only once. Inconclusive results and toxic doses are left out. Rule for the calls: active = survival T/C of 150% or more; inactive = T/C below 125% in these data. Where a SMILES comes first, the peptide text is derived from it. [ ]: non-standard residue; d: D form. The star is where a group is joined. ξ: configuration not given here. Cbz = O=C(OCc1ccccc1)*; OBn = c1ccc(CO*)cc1; Bn = c1ccc(C*)cc1; ξC = NC(CS)C(=O)O
Test system: B6C3F1 mice, B16 melanoma ip, median survival T/C
Test: NCI In Vivo Anticancer Drug Screen. Data for tumor model B16 Melanoma (intraperitoneal) in B6C3F1 mice
Conditions: endpoint: median survival time, higher = longer survival
Method in brief: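 Tumor-bearing mice received test compound; a separate group got vehicle only. Survival was then compared, with results reported as treated over control.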

[1] = dose: 50.0 mg/kg/injection, schedule: Q01DX009 (ip), vehicle: suspension in saline
[2] = dose: 100.0 mg/kg/injection, schedule: Q01DX009 (ip), vehicle: suspension in saline
[3] = dose: 50.0 mg/kg/injection, schedule: Q01DX009 (ip), vehicle: saline
[4] = dose: 100.0 mg/kg/injection, schedule: Q01DX009 (ip), vehicle: saline
[5] = dose: 25.0 mg/kg/injection, schedule: Q01DX009 (ip), vehicle: Klucel (hydroxypropylcellulose) (HPC)
[6] = dose: 50.0 mg/kg/injection, schedule: Q01DX009 (ip), vehicle: Klucel (hydroxypropylcellulose) (HPC)
[7] = dose: 200.0 mg/kg/injection, schedule: Q01DX009 (ip), vehicle: Klucel (hydroxypropylcellulose) (HPC)
[8] = dose: 400.0 mg/kg/injection, schedule: Q01DX009 (ip), vehicle: Klucel (hydroxypropylcellulose) (HPC)
[9] = dose: 12.5 mg/kg/injection, schedule: Q01DX009 (ip), vehicle: Klucel (hydroxypropylcellulose) (HPC)
[10] = dose: 12.5 mg/kg/injection, schedule: Q01DX009 (ip), vehicle: saline
[11] = dose: 25.0 mg/kg/injection, schedule: Q01DX009 (ip), vehicle: saline
[12] = dose: 25.0 mg/kg/injection, schedule: Q01DX009 (ip), vehicle: saline with Tween-80
[13] = dose: 50.0 mg/kg/injection, schedule: Q01DX009 (ip), vehicle: saline with Tween-80
[14] = dose: 100.0 mg/kg/injection, schedule: Q01DX009 (ip), vehicle: saline with Tween-80
[15] = dose: 400.0 mg/kg/injection, schedule: Q01DX009 (ip), vehicle: saline with Tween-80

Measured: T/C

NC(=S)N/N=C/c1ccc(O)cn1
inactive: dose: 12.5 mg/kg/injection, schedule: Q01DX009 (ip), vehicle: suspension in saline 106 % of control | dose: 25.0 mg/kg/injection, schedule: Q01DX009 (ip), vehicle: suspension in saline 113 % of control | [1] 119 % of control | [2] 118 % of control

NC1=NCN(C2OC(CO)C(O)C2O)C(=O)N1 (stereo not given)
inactive: [3] 108 % of control | [4] 105 % of control

O=S(=O)(O)C1=CC(=N\Cl)/C=CC/1=N/Cl
inactive: dose: 50.0 mg/kg/injection, schedule: Q01DX009 (ip), vehicle: saline + Tween-80 + alcohol 100 % of control | dose: 100.0 mg/kg/injection, schedule: Q01DX009 (ip), vehicle: saline + Tween-80 + alcohol 100 % of control

COC(=O)Nc1nc2ccc(SC)cc2c(=O)[nH]1
inactive: [5] 96 % of control | [6] 101 % of control | [7] 114 % of control

O=C(O)CNC(=O)OCC1c2ccccc2-c2ccccc21
inactive: dose: 100.0 mg/kg/injection, schedule: Q01DX009 (ip), vehicle: Klucel (hydroxypropylcellulose) (HPC) 93 % of control | [7] 87 % of control | [8] 86 % of control

O=C(O)/C=C/C(=O)Nc1ccc(Cl)c(Cl)c1
inactive: dose: 6.25 mg/kg/injection, schedule: Q01DX009 (ip), vehicle: Klucel (hydroxypropylcellulose) (HPC) 112 % of control | [8] 110 % of control

Cc1cn(C2CC(F)C(CO)O2)c(=O)[nH]c1=O (stereo not given)
inactive: dose: 125.0 mg/kg/injection, schedule: Q01DX009 (ip), vehicle: suspension in saline 117 % of control | dose: 250.0 mg/kg/injection, schedule: Q01DX009 (ip), vehicle: suspension in saline 116 % of control

COc1cccc2c1C(=O)c1c(O)c3c(c(O)c1C2=O)C[C@@](O)(/C(CO)=N/NC(=O)c1ccc(Cl)c(Cl)c1)C[C@@H]3OC1CC(N)C(O)C(C)O1 (stereo not given in full)
active: dose: 1.0 mg/kg/injection, schedule: Q01DX009 (ip), vehicle: saline 188 % of control | dose: 2.0 mg/kg/injection, schedule: Q01DX009 (ip), vehicle: saline 190 % of control | dose: 4.0 mg/kg/injection, schedule: Q01DX009 (ip), vehicle: saline 250 % of control | dose: 8.0 mg/kg/injection, schedule: Q01DX009 (ip), vehicle: saline 267 % of control | dose: 16.0 mg/kg/injection, schedule: Q01DX009 (ip), vehicle: saline 357 % of control

CS(=O)(=O)OCCN(CCOS(C)(=O)=O)c1ccc(C=Nc2ccc(-c3csc(COc4ccccc4)n3)cc2)cc1
active: [6] 162 % of control
inactive: [9] 114 % of control

Cc1ccc2nc(-c3ccc4nc(-c5ccc(N=Nc6ccc(-c7nc8ccc(-c9nc%10ccc(C)c(S(=O)(=O)O)c%10s9)cc8s7)cc6)cc5)sc4c3)sc2c1S(=O)(=O)O
inactive: [10] 87 % of control | [11] 86 % of control | [4] 88 % of control

CC1CCC(NC(=O)N(CCCl)N=O)CC1 (stereo not given)
inactive: dose: 2.5 mg/kg/injection, schedule: Q01DX005 (ip), vehicle: other 114 % of control | dose: 2.5 mg/kg/injection, schedule: Q01DX005 (iv), vehicle: other 107 % of control | dose: 4.0 mg/kg/injection, schedule: Q04DX002 (ip), vehicle: other 98 % of control | dose: 8.0 mg/kg/injection, schedule: Q04DX002 (ip), vehicle: other 113 % of control | dose: 10.0 mg/kg/injection, schedule: Q01DX001 (iv), vehicle: other 111 % of control | dose: 32.0 mg/kg/injection, schedule: Q04DX002 (ip), vehicle: other 76 % of control
active: dose: 5.0 mg/kg/injection, schedule: Q01DX005 (ip), vehicle: other 151 % of control | dose: 10.0 mg/kg/injection, schedule: Q01DX005 (ip), vehicle: other 294 % of control | dose: 16.0 mg/kg/injection, schedule: Q04DX002 (ip), vehicle: other 165 % of control | dose: 20.0 mg/kg/injection, schedule: Q01DX001 (ip), vehicle: other 162 % of control | dose: 20.0 mg/kg/injection, schedule: Q01DX001 (iv), vehicle: other 168 % of control | dose: 40.0 mg/kg/injection, schedule: Q01DX001 (ip), vehicle: other 223 % of control | dose: 40.0 mg/kg/injection, schedule: Q01DX001 (iv), vehicle: other 222 % of control

CCOC(=O)Nc1cc2c(c(N)n1)N=C(c1ccccc1)CO2
active: [15] 150 % of control and 198 % of control | dose: 480.0 mg/kg/injection, schedule: Q01DX009 (ip), vehicle: saline with Tween-80 165 % of control | dose: 800.0 mg/kg/injection, schedule: Q01DX009 (ip), vehicle: saline with Tween-80 172 % of control
inactive: [12] 112 % of control and 118 % of control | [13] 111 % of control and 118 % of control | [14] 115 % of control and 124 % of control | dose: 103.68 mg/kg/injection, schedule: Q01DX009 (ip), vehicle: saline with Tween-80 106 % of control

O=C(CNC(=O)C(CSCc1ccccc1)NC(=O)OCc1ccccc1)NCC(=O)OCc1ccccc1 (stereo not drawn) (Cbz-[ξC](Bn)-Gly-Gly-OBn)
inactive: [9] 92 % of control | [5] 88 % of control

CC(C)(C)OC(=O)NC(Cc1c[nH]c2ccccc12)C(=O)O (stereo not given)
inactive: dose: 100.0 mg/kg/injection, schedule: Q01DX009 (ip), vehicle: distilled water + alcohol 94 % of control | dose: 200.0 mg/kg/injection, schedule: Q01DX009 (ip), vehicle: distilled water + alcohol 94 % of control

Cc1cn(C2CC(O)C(CO)O2)c(=O)[nH]c1=O (stereo not given)
inactive: [10] 99 % of control | [11] 98 % of control | [3] 102 % of control | [4] 98 % of control | dose: 200.0 mg/kg/injection, schedule: Q01DX009 (ip), vehicle: saline 98 % of control | dose: 400.0 mg/kg/injection, schedule: Q01DX009 (ip), vehicle: saline 115 % of control

CN(C=O)C(C(=O)Nc1cccc2c(OC(=O)C(N(C)C=O)(N(C)C=O)N(C)C=O)c(N=Nc3ccc(S(=O)(=O)Nc4nccs4)cc3)cc(N=Nc3ccc(S(=O)(=O)Nc4nccs4)cc3)c12)(N(C)C=O)N(C)C=O (tested in a mixture with another compound)
inactive: [12] 98 % of control | [13] 112 % of control | [14] 121 % of control | dose: 200.0 mg/kg/injection, schedule: Q01DX009 (ip), vehicle: saline with Tween-80 104 % of control | [15] 105 % of control

NC1=NC(O)C=C1 (stereo not given)
inactive: dose: 3.12 mg/kg/injection, schedule: Q01DX009 (ip), vehicle: saline + alcohol 108 % of control | dose: 6.25 mg/kg/injection, schedule: Q01DX009 (ip), vehicle: saline + alcohol 108 % of control | dose: 12.5 mg/kg/injection, schedule: Q01DX009 (ip), vehicle: saline + alcohol 100 % of control | dose: 25.0 mg/kg/injection, schedule: Q01DX009 (ip), vehicle: saline + alcohol 104 % of control

CCC(C(=O)O)C(=O)O.[NH2-].[NH2-].[Pt+2]
active: [11] 154 % of control
inactive: dose: 1.56 mg/kg/injection, schedule: Q01DX009 (ip), vehicle: saline 117 % of control | dose: 3.12 mg/kg/injection, schedule: Q01DX009 (ip), vehicle: saline 102 % of control | dose: 6.25 mg/kg/injection, schedule: Q01DX009 (ip), vehicle: saline 102 % of control | [3] 102 % of control

N[C@@H](Cc1c[nH]c2ccccc12)C(=O)Nc1nncs1
inactive: [1] 94 % of control | [2] 95 % of control | dose: 200.0 mg/kg/injection, schedule: Q01DX009 (ip), vehicle: suspension in saline 103 % of control | dose: 400.0 mg/kg/injection, schedule: Q01DX009 (ip), vehicle: suspension in saline 106 % of control | dose: 800.0 mg/kg/injection, schedule: Q01DX009 (ip), vehicle: suspension in saline 109 % of control

CC12CCC3C(CCC4CC(OC(=O)Cc5ccc(N(CCCl)CCCl)cc5)CCC43C)C1CCC(=O)N2 (stereo not given)
inactive: dose: 1.5 mg/kg/injection, schedule: Q01DX009 (ip), vehicle: saline with Tween-80 113 % of control | dose: 3.0 mg/kg/injection, schedule: Q01DX009 (ip), vehicle: saline with Tween-80 106 % of control
active: dose: 12.0 mg/kg/injection, schedule: Q01DX009 (ip), vehicle: saline with Tween-80 167 % of control
